Test results published in PubChem BioAssay AID1918937 (Molecular Pharmacology Branch, DTP, NCI, 2023).
Values joined by “and” are separate entries in the source; they are usually repeats but may differ in a detail not shown here. Identical values can stand only once.

Tested on: 521955-158-R2-J5-PDC complex spheroid viability
Experiment: Anticancer human tumor 521955-158-R2-J5-PDC patient-derived pancreatic carcinoma cell line growth inhibition
Conditions: for viability, T/C: stronger effect = lower value
Text: Multicellular complex tumor spheroid response to LSD1 Inhibitor Iadademstat in combination with a variety of drugs and investigational agents in selected tumor cell lines
The current study was undertaken to assess response to LSD1 inhibitors in combination with standard-of-care drugs and investigational agents in solid tumor complex spheroid models as well as in the K-562 leukemia. Complex spheroids include a stromal component modeled by human endothelial cells (HUVEC) and fibroblasts modeled by human mesenchymal stem cells (MSCs). The concentration ranges selected for each drug and investigational agent were based upon clinically achievable concentrations if the clinical Cmax of the agent was known.
Compounds. The drugs and investigational agents used in this study are listed on Table 1. All of the agents used, including staurosporine (NSC755774) and gemcitabine (NSC613327), were obtained from the Developmental Therapeutics Program, NCI. FDA-approved anticancer drugs are available from the NCI at http://dtp.nci.nih.gov/branches/dscb/oncology_drugset_explanation.html. Drugs and investigational agents were >95% pure by proton nuclear magnetic resonance (NMR) and liquid chromatography/mass spectrometry (LC/MS). Stock solutions were prepared at 400x in DMSO, stored at -70 degrees C, and diluted in fresh medium prior to their use. The final concentration of DMSO in cell culture wells never exceeded 0.25% (v/v). The FDA-approved anticancer drug set is available from the Developmental Therapeutics Program at https://dtp.cancer.gov/organization/dscb/obtaining/available_plates.htm. All drugs and investigational agents were tested over a range starting from a high concentration at or near the clinical Cmax and decreasing in half-log increments. If the clinical Cmax for an agent had not been determined, the highest concentration tested was 10 microM.
Cell Lines. The patient-derived cancer cell (PDC) lines: 292921-168-R-J2-PDC, K24384-001-R-PDC, and 521955-158-R2-J5-PDC pancreatic carcinomas, 556581-035-R-J1 ovarian carcinoma, 324938-238-R-J1-PDC, 855422-203-R-J1-PDC and 883617-216-R-J1-PDC urothelial bladder carcinomas, 743489-274-T-PDC renal cell carcinoma, 138582-R-J1 Merkel cell tumor, K60290-347-R-J1 and K57222-313-R-J1-PDC glioblastomas, 653999-131-R-J2-PDC, LG0703-F948-PDC, and 349418-098-R-PDC non-small cell lung carcinomas, 885512-296-R-J2-PDC, 171881-019-R-J1-PDC breast carcinomas and 186277-243-T-J2-PDC and 233499-124-R-J2-PDC colon carcinomas were obtained from the NCI Patient-Derived Models Repository (PDMR, https://pdmr.cancer.gov). The established cell lines NCI/ADR-RES (RRID:CVCL_14520 and OVCAR-5 (RRID:CVCL_1628) ovarian carcinomas, 786-O (RRID:CVCL_1051) and A498 (RRID:CVCL_A498) renal cell carcinoma, NCI-H211 (ATCC, cat. CRL-5824; RRID:CVCL_1529), NCI-H196 (ATCC, cat. CRL-5823, RRID:CVCL_1509), SW 1271 (ATCC, cat. CRL-2177, RRID:CVCL_1716) and NCI-H1876 (ATCC, cat. CRL-5902, RRID:CVCL_1503) small cell lung carcinomas, MDA-MB-231 (RRID:CVCL_0062) and MDA-MB-468 (RRID:CVCL_0419)breast carcinomas (10-12). Pooled donor human umbilical vein endothelial cells (HUVEC, Lonza, cat. CC-2519) and human mesenchymal stem cells (hMSC, Lonza, cat. PT-2501) were purchased from Lonza (Walkersville, MD).
Cell Culture. All cells were maintained in an incubator at 37 degrees C and 5% CO2 with 95% humidity. The PDC lines were cultured according to standard operating procedures established by the NCI PDMR (https://pdmr.cancer.gov). Briefly all PDCs were thawed and cultured in Matrigel-coated flasks prepared with a working solution of 1X Ham's F-12 nutrient mix, without supplementation (Invitrogen, Waltham, MA, cat. 11765054), 100 U/mL penicillin-streptomycin (Invitrogen, cat. 15140122), and 2.5% Matrigel (Corning Inc., Corning, NY, cat. 354248) for the first three passages. […]

[1] = curve of first compound, second compound 0.1 µM
[2] = curve of first compound, second compound 0.316 µM
[3] = curve of first compound, second compound 1 µM
[4] = curve of first compound, second compound 3.16 µM
[5] = curve of first compound, second compound 10 µM
[6] = second compound 0.1 µM, first compound 0.00949 µM
[7] = second compound 0.1 µM, first compound 0.03 µM
[8] = second compound 0.1 µM, first compound 0.0949 µM
[9] = second compound 0.1 µM, first compound 0.3 µM
[10] = second compound 0.316 µM, first compound 0.00949 µM
[11] = second compound 0.316 µM, first compound 0.03 µM
[12] = second compound 0.316 µM, first compound 0.0949 µM
[13] = second compound 0.316 µM, first compound 0.3 µM
[14] = second compound 1 µM, first compound 0.00949 µM
[15] = second compound 1 µM, first compound 0.03 µM
[16] = second compound 1 µM, first compound 0.0949 µM
[17] = second compound 1 µM, first compound 0.3 µM
[18] = second compound 3.16 µM, first compound 0.00949 µM
[19] = second compound 3.16 µM, first compound 0.03 µM
[20] = second compound 3.16 µM, first compound 0.0949 µM
[21] = second compound 3.16 µM, first compound 0.3 µM
[22] = second compound 10 µM, first compound 0.00949 µM
[23] = second compound 10 µM, first compound 0.03 µM
[24] = second compound 10 µM, first compound 0.0949 µM
[25] = second compound 10 µM, first compound 0.3 µM
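Also: spheroids exposed to agents for seven days.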
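For viability, T/C in this document: percent of DMSO vehicle control luminescence viability.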

NS(=O)(=O)OCC1CC(n2ccc3c(NC4CCc5ccccc54)ncnc32)CC1O (configuration not stated) + NC1CC1c1ccc(-c2cccc(O)c2)cc1
IC50 [1]: 66.1 nM
IC50 [2]: 62.9 nM
IC50 [3]: 52.8 nM
IC50 [4]: 54.3 nM
IC50 [5]: 40.8 nM
viability, T/C [6]: 96.4%
viability, T/C [7]: 72.8%
viability, T/C [8]: 38.5%
viability, T/C [9]: 22.4%
viability, T/C (second compound 0.1 µM, first compound 0.949 µM): 16.1%
viability, T/C (second compound 0.1 µM, first compound 3 µM): 11%
viability, T/C [10]: 117%
viability, T/C [11]: 71.1%
viability, T/C [12]: 38.3%
viability, T/C [13]: 21.7%
viability, T/C (second compound 0.316 µM, first compound 0.949 µM): 17.4%
viability, T/C (second compound 0.316 µM, first compound 3 µM): 12.3%
viability, T/C [14]: 111%
viability, T/C [15]: 62.5%
viability, T/C [16]: 37.6%
viability, T/C [17]: 21.2%
viability, T/C (second compound 1 µM, first compound 0.949 µM): 16.7%
viability, T/C (second compound 1 µM, first compound 3 µM): 11.5%
viability, T/C [18]: 120%
viability, T/C [19]: 63.6%
viability, T/C [20]: 38.1%
viability, T/C [21]: 21.3%
viability, T/C (second compound 3.16 µM, first compound 0.949 µM): 17.7%
viability, T/C (second compound 3.16 µM, first compound 3 µM): 14.1%
viability, T/C [22]: 83.7%
viability, T/C [23]: 54.5%
viability, T/C [24]: 37.5%
viability, T/C [25]: 23.9%
viability, T/C (second compound 10 µM, first compound 0.949 µM): 21%
viability, T/C (second compound 10 µM, first compound 3 µM): 16%

CCc1c2c(nc3ccc(O)cc13)-c1cc3c(c(=O)n1C2)COC(=O)[C@]3(O)CC + NC1CC1c1ccc(-c2cccc(O)c2)cc1
IC50 [1]: < 0.949 nM
IC50 [2]: < 0.949 nM
IC50 [3]: < 0.949 nM
IC50 [4]: < 0.949 nM
IC50 [5]: < 0.949 nM
viability, T/C (second compound 0.1 µM, first compound 0.000949 µM): 10.3%
viability, T/C (second compound 0.1 µM, first compound 0.003 µM): 8.53%
viability, T/C [6]: 1.37%
viability, T/C [7]: 0.77%
viability, T/C [8]: 0.88%
viability, T/C [9]: 1.18%
viability, T/C (second compound 0.316 µM, first compound 0.000949 µM): 14%
viability, T/C (second compound 0.316 µM, first compound 0.003 µM): 8.17%
viability, T/C [10]: 1.18%
viability, T/C [11]: 0.73%
viability, T/C [12]: 0.87%
viability, T/C [13]: 1.5%
viability, T/C (second compound 1 µM, first compound 0.000949 µM): 11.7%
viability, T/C (second compound 1 µM, first compound 0.003 µM): 9.8%
viability, T/C [14]: 1.34%
viability, T/C [15]: 1.1%
viability, T/C [16]: 0.66%
viability, T/C [17]: 1.78%
viability, T/C (second compound 3.16 µM, first compound 0.000949 µM): 13.4%
viability, T/C (second compound 3.16 µM, first compound 0.003 µM): 8.84%
viability, T/C [18]: 1.07%
viability, T/C [19]: 0.72%
viability, T/C [20]: 0.84%
viability, T/C [21]: 2.14%
viability, T/C (second compound 10 µM, first compound 0.000949 µM): 17.5%
viability, T/C (second compound 10 µM, first compound 0.003 µM): 13%
viability, T/C [22]: 1.18%
viability, T/C [23]: 0.43%
viability, T/C [24]: 0.52%
viability, T/C [25]: 0.74%

CCc1c2c(nc3ccc(O)cc13)-c1cc3c(c(=O)n1C2)COC(=O)[C@]3(O)CC
viability, T/C (compound 0.000949 µM): 4.87% and 6%
viability, T/C (compound 0.003 µM): 3.58% and 4.94%
viability, T/C (compound 0.00949 µM): 1.12% and 1.08%
viability, T/C (compound 0.03 µM): 0.53% and 1.39%
viability, T/C (compound 0.0949 µM): 0.45% and 1.25%
viability, T/C (compound 0.3 µM): 0.6% and 1.68%
IC50 (curve of compound): < 0.949 nM

CC(C)CC(NC(=O)CNC(=O)c1cc(Cl)ccc1Cl)B1OC(=O)CC(CC(=O)O)(C(=O)O)O1 (configuration not stated) + NC1CC1c1ccc(-c2cccc(O)c2)cc1
IC50 [1]: 5.71 nM
IC50 [2]: 5.63 nM
IC50 [3]: 5.49 nM
IC50 [4]: 5.37 nM
IC50 [5]: 4.75 nM
viability, T/C (second compound 0.1 µM, first compound 0.000316 µM): 83.1%
viability, T/C (second compound 0.1 µM, first compound 0.001 µM): 91.7%
viability, T/C (second compound 0.1 µM, first compound 0.00316 µM): 86.8%
viability, T/C (second compound 0.1 µM, first compound 0.01 µM): 15.1%
viability, T/C (second compound 0.1 µM, first compound 0.0316 µM): 0.96%
viability, T/C (second compound 0.1 µM, first compound 0.1 µM): 0.46%
viability, T/C (second compound 0.316 µM, first compound 0.000316 µM): 73.4%
viability, T/C (second compound 0.316 µM, first compound 0.001 µM): 90.5%
viability, T/C (second compound 0.316 µM, first compound 0.00316 µM): 89.2%
viability, T/C (second compound 0.316 µM, first compound 0.01 µM): 15.8%
viability, T/C (second compound 0.316 µM, first compound 0.0316 µM): 0.53%
viability, T/C (second compound 0.316 µM, first compound 0.1 µM): 0.18%
viability, T/C (second compound 1 µM, first compound 0.000316 µM): 81.3%
viability, T/C (second compound 1 µM, first compound 0.001 µM): 83.6%
viability, T/C (second compound 1 µM, first compound 0.00316 µM): 87.3%
viability, T/C (second compound 1 µM, first compound 0.01 µM): 13%
viability, T/C (second compound 1 µM, first compound 0.0316 µM): 0.98%
viability, T/C (second compound 1 µM, first compound 0.1 µM): 0.23%
viability, T/C (second compound 3.16 µM, first compound 0.000316 µM): 76.3%
viability, T/C (second compound 3.16 µM, first compound 0.001 µM): 86.2%
viability, T/C (second compound 3.16 µM, first compound 0.00316 µM): 83.8%
viability, T/C (second compound 3.16 µM, first compound 0.01 µM): 12.3%
viability, T/C (second compound 3.16 µM, first compound 0.0316 µM): 0.68%
viability, T/C (second compound 3.16 µM, first compound 0.1 µM): 0.23%
viability, T/C (second compound 10 µM, first compound 0.000316 µM): 87.6%
viability, T/C (second compound 10 µM, first compound 0.001 µM): 93.7%
viability, T/C (second compound 10 µM, first compound 0.00316 µM): 72.7%
viability, T/C (second compound 10 µM, first compound 0.01 µM): 8.29%
viability, T/C (second compound 10 µM, first compound 0.0316 µM): 0.39%
viability, T/C (second compound 10 µM, first compound 0.1 µM): 0.24%
